From patent US20070292351A1, “Assay for efficacy of histone deacetylase inhibitors” (Methylgene, Inc., priority 2006, published 2007)
Where two headings read alike, the source gives them in different places.

Experiments:
Jurkat cells = assay: IL-6 transcription in Jurkat cells; type: cell-based, human; details: 24 hours (FIG. 14)
Method: Quantitative PCR with SYBR Green I detection with Mastercycler® ep realplex (Eppendorf) was performed using LightCycler® 480 SYBR Green I Master (Roche Diagnostics). SYBR Green I assays were performed with 600 nM primers. All other reaction conditions were as described by the manufacturer. Amplification conditions were 5 minutes of initial denaturation at 95° C., followed by 40 cycles of each 15 seconds at 95° C., 15 seconds at 63.4° C., 20 seconds at 68° C., a melting curve from 60° C. to 95° C. was recorded. Quantification was performed using Pfaffl method, a relative quantification method in real-time PCR (Nucleic Acids Research 2001 29:2002-2007). Primers were synthesized by Invitrogen (Invitrogen-Canada, Burlington, Ont.).

histone H3 acetylation = assay: Histone acetylation of nuclear extracts from white blood cells; type: in vivo, human; details: AML Patient A with clinical response (FIG. 9)
Method: Human white peripheral cells were resuspended in 50 ul cold lysis buffer (10 mM Tris-HCl pH8.0, 1.5 mM MgCl2, 5 mM KCl, 0.5% NP-40, 5 mM Na butyrate plus protease inhibitors) and incubated on ice for 10 min. Cells were centrifuged at […] in an IEC Micromax centrifuge (Fisher Scientific Ltd., Nepean, Ontario) at 4° C. for 10-15 min and nuclei collected. Nuclei were washed with 50 ul lysis buffer by centrifugation at 2000 rpm at 4° C. for 10-15 min. Nuclei were resuspended in 35 ul ice cold Nuclear Lysis buffer (50 mM HEPES pH7.5, 500 mM NaCl, 1% NP-40, 1 mM EDTA, 10% glycerol, 5 mM NaButyrate and protease inhibitors) and sonicated 10 seconds using a VirSonic 300 sonicator (VirTis, Gardiner, N.Y.). Lysed nuclei were centrifuged at 15000 rpm at 4° C. for 5 min and supernatant collected for ELISA.
Black plates were coated with 50 ul of diluted anti-Histone antibodies (H11-4, Chemicon, Temecula, Calif.) (1:1000 in TBS) and incubated at ambient temperature for 2 hours. Plates were washed twice with 50 ul of PBS and blocked with 1% BSA+0.1% TritonX-100 in PBS (50 ul) for 45 minutes. […] Fluoroscence development was allowed for 60 minutes in foil and plates were read on a fluorometer (Gemini XS, Molecular Devices, Sunnyvale, Calif.) at Excitation at 550 nm and emission at 610 nm with a cutoff of 590 nm (Auto PMT, 15 reads/well). Data were analyzed using Excel.

[1] = system: human peripheral white cells; assay: Microarray gene expression analysis, peripheral white cells ex vivo; type: cell-based; details: WBC ex vivo
Method: Whole blood from either consenting healthy volunteers or consenting patients was centrifuged at 2500 rpm for 10 minutes at ambient temperature in a Sorvall RT-7 centrifuge (Mandel Scientific Co., Guelph, Ontario). Plasma was removed and buffy coat was collected. Five volumes of Erythrocyte Lysis Buffer (EL) (Qiagen Canada Inc., Mississauga, Ontario) were added into buffy coat. Buffy coat was incubated on ice for 20 minutes before it was centrifuged at 400 g for 10 minutes at 4° C. Supernatant was removed and buffy coat was washed twice with EL buffer and re-centrifuged. Buffy coat was resuspended in RPMI media and cells were counted with trypan blue exclusion. To isolate PBMCs, buffy coat cells were centrifuged over Lymphoprep (Axis-Shield, 1114544), and any remaining erythrocytes in the sample were lysed by treatment with EL lysis buffer (Qiagen, 79217). The cell pellets are washed and then re-suspended in RPMI containing 10% FBS.
Biological analysis was performed using Biointerpreter software.

Jurkat-T leukemic cells = assay: RT-PCR of MT3 transcription in Jurkat-T cells; type: cell-based, human; details: 16 h, semi-quantitative RT-PCR (FIG. 2)
Method: RNA was extracted from 8×10^6 cells using the Qiagen RNeasy Mini kit (cat#74106, Qiagen, Missisauga Ont.) following the manufacturer's instructions. RT reaction was performed using the Expand Reverse Transcriptase kit from Roche (Cat#1 785 834 Roche Applied Biosciences, Laval, Que) with 1 μg total RNA together with 1 μl oligo(dT) primer (cat#y01212, Invitrogen-Canada, Burlington, Ont). cDNA was synthesized using an Eppendorf Mastercycler gradient PCR apparatus (Brinkmann Instruments Canada LTD., Mississauga, Ontario), using a two cycle protocol. For the 1st cycle reaction mixture (0.5 μl H2O, 4 μl of 5× Buffer, 2 μl DTT, 2 ul of 10 mM dNTPs, 0.5 μl RNAsin (cat#N211B, Promega, Fisher Scientific, Whitby, Ont.) and […] of the Expand Reverse Transcriptase (Cat#1785834, Roche, Laval, Quebec)) was incubated at 65° C. for 10 minutes and then set on ice. A second cycle was performed at 42° C. for 1 hour. The resulting cDNA products were kept at 4° C. until used.
One ul of the resulting cDNA was used for every amplification reaction with 18.9 ul H2O, 1.25 ul of 10 mM dNTPs, 0.5 ul of each primer pair, 2.5 ul of 10× Buffer. The PCR reaction was carried out in an Eppendorf Mastercycler gradient. The sequences of the primers used for the amplification of selected biomarkers, as well as the details of the PCR reaction cycles are featured below. […]

Nc1ccccc1NC(=O)c1ccc(CNc2nccc(-c3cccnc3)n2)cc1 [MGCD0103]
dose-dependent induction of IL-6 transcription (Jurkat cells): dose-dependent induction | induction of histone H3 acetylation in peripheral white cells (histone H3 acetylation): induction | fold induction at 1 µM ([1]; probe A_23_P16523, read-out: Fold Induction of GDF15 transcription): 18.8 | fold induction at 1 µM ([1]; probe A_23_P41344, read-out: Fold Induction of EREG transcription): 12.8 | fold induction at 1 µM ([1]; probe A_23_P52336, read-out: Fold Induction of UNC5B transcription): 2.66 | fold induction at 1 µM ([1]; probe A_23_P94754, read-out: Fold Induction of TNFSF15 transcription): 4.43 | fold induction at 1 µM ([1]; probe A_23_P114947, read-out: Fold Induction of RGS2 transcription): 4.43 | fold induction at 1 µM ([1]; probe A_23_P142506, read-out: Fold Induction of GADD45B transcription): 2.9 | fold induction at 1 µM ([1]; probe A_23_P149019, read-out: Fold Induction of BAI2 transcription): 2.69 | fold induction at 1 µM ([1]; probe A_23_P151046, read-out: Fold Induction of KLRC1 transcription): 3.12 | fold induction at 1 µM ([1]; probe A_23_P259071, read-out: Fold Induction of AREG transcription): 32.6 | fold induction at 1 µM ([1]; probe A_23_P315273, read-out: Fold Induction of MT3 transcription): 5.16 | fold induction at 1 µM ([1]; probe A_24_P5856, read-out: Fold Induction of TNFSF9 transcription): 3.32 | fold induction at 1 µM ([1]; probe A_24_P217520, read-out: Fold Induction of EREG transcription): 10.5 | Dose-dependent induction of MT3 transcription (Jurkat-T leukemic cells): Dose-dependent induction
